Measurements: patent publication US20080139654A1, “ACETAMINOPHEN COMPOSITIONS HAVING MINIMIZED SIDE EFFECTS INCLUDING REDUCED HEPATOTOXICITY” (priority 2006, published 2008)

Legend:
[1] = male, human, in vivo
Excerpt: A construction worker* fell from a height of about 8 feet, severely breaking their right ankle and wrist. (*to promote privacy and simplify description of the invention, the patient and symptoms described here are a composite of data from typical patients). Orthopedic surgery repaired the injury, followed by prolonged and painful rehabilitation. A prescription for 60 Vicodin tablets (a composition comprising acetaminophen and hydrocodone) is given routinely during such post-surgical recovery periods. Typcially, the first day 4 to 8 vicodin tablets manage pain (often in combination with sedatives and the aftereffects of surgical anesthetics).
On the second day, at least 8 Vicodin® tablets are generally required to get the same analgesic effect (Vicodin is a well known trademark, which will also be referred to herein by “vicodin”). Subsequently, it is common that more than 10 vicodin tablets per day are taken, contrary to the doctor's instructions, yet less pain relief is noted with this higher dosage. At this rate, the patient must seek a refill in only a week; often doctors refilling such prescriptions give a stern advisory about taking too many pills and the dangers of Tylenol/acetaminophen. Subsequently, the patient sought prescriptions from other physicians and took 30 Vicodin tablets each day. […]

[2] = rat, oral
Description: The effect of prophylactic administration of n-acetylcysteine (NAC) on acetaminophen hepatotoxicity can be determined in the rat. In a double-blind placebo study, four groups of rats are given one of the following oral dosings: “NAC-free” (NF), low NAC (LN), medium NAC (MN), or high NAC(HN). Then rats in all groups are administered a toxic dose of acetaminophen (1 g/kg body weight) orally. After 24 hours, animal are euthanized and assessed for hepatotoxicity by the elevation of serum transaminases and by a necrotic score based on histological examination.
In the following protocol, all rats in the study are given the LD50 dose of acetaminophen (determined by the dosage of acetaminophen that causes 50% of the test subjects to expire after a predetermined period of time). […] The study is conducted in double-blind fashion; four groups of rats are given one of the following oral dosings: “NAC-free” (NF or placebo), low NAC (LN), medium NAC (MN), or high NAC(HN). Then rats in all groups are administered a LD50 dose of acetaminophen. All animals are euthanized 3 weeks later and hepatotoxicity assessed by the elevation of serum transaminases and by a necrotic score based on histological examination. Mortality in all groups will also be followed as the added criterion.

[3] = Mucomyst monograph; cited from earlier work
[4] = person, 4 grams/day; cited from earlier work
[5] = rats, oral methionine 200 mg/kg/day for 14 days; cited from earlier work

CC(=O)Nc1ccc(O)cc1 [acetaminophen, N-acetyl-p-aminophenol]
destruction of liver [1]: over 90%
LD50 dose of acetaminophen [2]: 0.5 g/kg of Body weight
large overdose that saturates glucuronide and sulfate conjugation pathways, leading to hepatic cellular necrosis [3]: ≥ 150 mg·kg
hepatotoxicity at recommended dose [4]: severe hepatotoxicity

CSCC[C@H](N)C(=O)O [methionine]
angiotoxic effects [5]: angiotoxic effects similar to atherosclerosis
concentrations of homocysteine in serum [5]: increased
